Measurements: US20210386823A1, “THERAPEUTIC AGENT FOR CARTILAGE DISORDER” (OSAKA UNIVERSITY, priority 2018, published 2021)

Tested on: cartilage defect model mice (knee joint articular cartilage defect)
Assay: Efficacy of HMGB1 fragment peptide on articular cartilage defect in cartilage defect model mouse
Assay type: in vivo, C57BL/6J mice
Procedure: C57BL/6J mice (6-7 weeks old, male, wild type) were purchased from CLEA Japan, Inc., and then acclimated to animal facilities until they were 8 weeks old (weighing approximately 25 g at 8 weeks old). While the mice were under 1.5-2.0% (v/v) isoflurane inhalation anesthesia, shaving was performed on the lower extremity of the side to create a cartilage defect, and a longitudinal skin incision of approximately 1 cm was applied with scissors to the middle of the knee joint. An articular dissection of approximately 1 cm was performed under the microscope with a sharp blade (#11) in the parapatellar medial approach to dislocate the patella laterally. The femoral pulley was confirmed, and a 0.5×0.5×0.5 mm cartilage defect was created at the center of the pulley using a 0.5 mm diameter hand-turned drill (manufactured by MEISINGER USA, L.L.C.). Inside of the joint was washed with saline, then the articular capsule was continuously sutured with 8-0 vicryl to prevent patellar dislocation, and the skin was sutured with 5-0 nylon thread.
Cartilage defect model mice created as described above were divided into an HMGB1 peptide (1-44) administration group (n=16) and a control group (n=16). To the HMGB1 peptide (1-44) administration group, a solution of HMGB1 peptide (1-44) adjusted to a concentration of 1 μg/μL with saline as solvent was administered from the tail vein in an amount of 100 μL/mouse (4 mg/kg as the dose of peptide) immediately after the cartilage defect was created, and thereafter, the same dose was administered twice a week until 4 weeks after the cartilage defect was created (hereinafter also referred to simply as “post-operative”). To the control group, saline was administered from the tail vein in an amount of 100 μL to each mouse on the same schedule as in the HMGB1 peptide (1-44) administration group.
In both the HMGB1 peptide (1-44) administration group and the control group, four mice were sacrificed at each time point of 2, 4, 8 and 12 weeks post-operative, and the cartilage defect creation sites of knee joints were removed for microscopic observation and tissue staining. For microscopic observation, the status of cartilage tissue was evaluated by scoring the gross appearance according to the criteria shown in Table 1 below using the Wayne scoring system. In addition, sections of cartilage tissue were created for histological evaluation and subjected to safranin O staining, and the status of cartilage tissue was evaluated by calculating the Wakitani score from the tissue images according to the criteria shown in Table 2 below.

HMGB1 peptide (1-44): Peptide consisting of amino acid residues 1-44 (SEQ ID NO: 1) of human-derived HMGB1 protein, chemically synthesized by a solid-phase method (MGKGDPKKPRGKMSSYAFFVQTCREEHKKKHPDASVNFSEFSKK)
Microscopic observation (gross appearance) of cartilage defect sites of knee joints (4 mg/kg tail vein, twice a week until 4 weeks post-operative, observed at 2, 4, 8 and 12 weeks post-operative, vs control group (saline)): recovered to a state closer to normal than those of the control group | Safranin O staining of cartilage tissue sections (regeneration of defective cartilage tissue) (4 mg/kg tail vein, twice a week until 4 weeks, 2, 4, 8 and 12 weeks post-operative, FIGS. 3 and 5): defective cartilage tissue was fully regenerated | Wayne score (gross appearance) (4 mg/kg tail vein, twice a week until 4 weeks, 2, 4, 8 and 12 weeks post-operative, vs control group, FIG. 2): higher than the control group | Wakitani score (histological evaluation) (4 mg/kg tail vein, twice a week until 4 weeks, 2, 4, 8 and 12 weeks post-operative, vs control group, FIGS. 4 and 6): significantly lower compared to that of the control group | Safranin O staining response of knee joint cartilage tissues compared with normal mice (12 weeks post-operative, compared with cartilage of normal mice (FIG. 8, left)): strong positive response similar to cartilage tissues of knee joints of normal mice
